This is an account of results in patent US20100298300A1, “TRIAZOLOPYRAZINE COMPOUNDS USEFUL FOR THE TREATMENT OF DEGENERATIVE & INFLAMMATORY DISEASES” (priority 2006, published 2010).

Test [1] has as its system TNFα release by human PBMCs. The experiment in a line: Cytokine release by LPS stimulated human PBMCs (TNFα ELISA). Type of test: cell-based. The settings on record: PBMC, 24 h, Table 5, LPS 1 μg/mL. A general note: An ELISA detects its analyte on a solid surface through an enzyme-linked reagent.
The subject of test [2] is MMP1 expression by activated primary synovial fibroblasts. The experiment in a line: 'MMP assay': MMP1 expression by complex trigger activated synovial fibroblasts (MMP1 ELISA). Type of test: cell-based. To be noted: Homo sapiens, Fibroblast; Table 3; RASFs, complex trigger, 48 hrs, MMP1 ELISA.
Test [3] concerns the target T1, MAPKAPK5 (Homo sapiens, UniProt Q8IW41).
T1 sequence (Q8IW41 1-471 isoform Q8IW41-2): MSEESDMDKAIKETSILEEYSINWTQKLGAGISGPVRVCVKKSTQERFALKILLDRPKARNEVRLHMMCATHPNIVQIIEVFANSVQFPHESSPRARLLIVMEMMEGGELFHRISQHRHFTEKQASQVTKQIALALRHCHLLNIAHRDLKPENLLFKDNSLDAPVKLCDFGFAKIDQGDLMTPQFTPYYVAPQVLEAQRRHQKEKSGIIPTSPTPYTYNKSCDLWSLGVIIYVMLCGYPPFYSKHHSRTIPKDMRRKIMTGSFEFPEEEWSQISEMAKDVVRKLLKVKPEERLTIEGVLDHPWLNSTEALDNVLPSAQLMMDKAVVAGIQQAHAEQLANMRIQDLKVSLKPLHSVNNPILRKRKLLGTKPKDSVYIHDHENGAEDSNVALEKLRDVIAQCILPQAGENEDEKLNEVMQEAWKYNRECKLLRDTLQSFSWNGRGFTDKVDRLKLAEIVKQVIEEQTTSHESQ
The test is described as follows: MAPKAP-K5 assay (FlashPlate kinase assay).

Structures are written as SMILES.

By EC50 is commonly meant the concentration giving half of the maximal effect. Higher therefore signals a less potent agent. What is called IC50 is the concentration that inhibits the measured activity by half. A lower IC50 goes with greater potency. Regarding `c1nc2c(Nc3ccc(N4CCOCC4)cc3)ncc(-c3ccc4[nH]ncc4c3)n2n1` [Compound 104], the half-maximal effective concentration (EC50) in test [1] and in test [2] was over 1000 nM throughout. For the same compound, the IC50 in test [3] is over 1000 nM.

As to `O=C1NCc2cc(-c3cnc(Nc4ccc(N5CCNCC5=O)cc4)c4ncnn34)ccc21` [Compound 105, 5-{8-[4-(2-Oxo-piperazin-1-yl)-phenylamino]-[1,2,4]triazolo[1,5-a]pyrazin-5-yl}-2,3-dihydro-isoindol-1-one], the concentration for a half-maximal effect (EC50) in test [1] and in test [2] was over 1000 nM in each case. For the same compound, in test [3], the 50% inhibitory concentration (IC50) lay within 1 to 100 nM.

For the compound `CC(C)N1CCN(c2ccc(Nc3ncc(-c4cc(F)c5c(c4)CNC5=O)n4ncnc34)cc2)CC1` [Compound 108, 7-Fluoro-5-{8-[4-(4-isopropylpiperazin-1-yl)-phenylamino]-[1,2,4]triazolo[1,5-a]pyrazin-5-yl}-2,3-dihydroisoindol-1-one], the EC50 in test [1] and in test [2] was over 1000 nM each time. Also, in test [3], the IC50 was in the range of 1 to 100 nM.

As to `CNCc1cc(Nc2ncc(-c3cn[nH]c3)n3ncnc23)ccc1N1CCOCC1` [Compound 110], the 50% effective concentration (EC50) in test [1] and in test [2] was over 1000 nM in each case. The same compound returned an IC50 in test [3] of over 1000 nM.

As for `O=C1NCc2cc(-c3cnc(Nc4ccc(N5CCOCC5)cc4)c4ncnn34)sc21` [Compound 113], the EC50 in test [1] was over 1000 nM; in test [2], 101 to 500 nM. Besides, in test [3], the half-inhibitory concentration (IC50) is 501 to 1000 nM.

For `O=C1NCc2cc(-c3cnc(NC4CCCCC4)c4ncnn34)ccc21` [Compound 115], the EC50 in test [1] and in test [2] was over 1000 nM in each case. Further, the 50% inhibitory concentration (IC50) in test [3] was in the range of 101 to 500 nM.

For the compound `O=C1NCc2cc(-c3cnc(NC4CCOCC4)c4ncnn34)ccc21` [Compound 116], the EC50 in test [1] and in test [2] was over 1000 nM in each case. The compound further gave a half-maximal inhibitory concentration (IC50) in test [3] of over 1000 nM.

As to `O=C1NCc2cc(-c3cnc(Nc4ccc(F)cc4)c4ncnn34)ccc21` [Compound 117], the EC50 in test [1] was over 1000 nM; in test [2] it was 101 to 500 nM. In addition, in test [3], the IC50 was over 1000 nM.

Turning to `NC(=O)CN1CCC(c2ccc(Nc3ncc(-c4cn[nH]c4)n4ncnc34)cc2)CC1` [Compound 169, 2-(4-{4-[5-(1H-Pyrazol-4-yl)-[1,2,4]triazolo[1,5-a]pyrazin-8-ylamino]phenyl}-piperidin-1-yl)acetamide], the EC50 in test [1] and in test [2] was over 1000 nM throughout. The compound further showed an IC50 in test [3] of 501 to 1000 nM.

As for `CC(C)N1CCN(c2ccc(Nc3ncc(-c4ccc5c(c4)CNC5=O)n4ncnc34)cc2C(F)(F)F)CC1` [Compound 170, 5-{8-[4-(4-Isopropylpiperazin-1-yl)-3-trifluoromethylphenylamino]-[1,2,4]triazolo[1,5-a]pyrazin-5-yl}-2,3-dihydroisoindol-1-one], the EC50 in test [1] and in test [2] was over 1000 nM each time. The same compound registered an IC50 in test [3] of 101 to 500 nM.

Take `CC(C)N1CCN(c2ccc(Nc3ncc(-c4cn[nH]c4)n4ncnc34)cc2C(F)(F)F)CC1` [Compound 171, [4-(4-Isopropylpiperazin-1-yl)-3-trifluoromethylphenyl]-[5-(1H-pyrazol-4-yl)-[1,2,4]triazolo[1,5-a]pyrazin-8-yl]amine]: the 50% effective concentration (EC50) in test [1] was 501 to 1000 nM; in test [2], over 1000 nM. This compound had an IC50 in test [3] of over 1000 nM.

As for `CC(C)N1CCC(c2ccc(Nc3ncc(-c4cn[nH]c4)n4ncnc34)cn2)CC1` [Compound 172], the EC50 in test [1] and in test [2] was over 1000 nM throughout. Besides, the IC50 in test [3] was over 1000 nM.

Regarding `O=C1NCc2cc(-c3cnc(Nc4ccc(F)cc4F)c4ncnn34)ccc21` [Compound 174], the EC50 in test [1] and in test [2] was over 1000 nM throughout. The compound further gave a half-maximal inhibitory concentration (IC50) in test [3] of over 1000 nM.

As for `CNCc1cc(Nc2ncc(-c3ccc4c(c3)CNC4=O)n3ncnc23)ccc1N1CCOCC1` [Compound 179], the EC50 in test [1] and in test [2] was over 1000 nM each time. For the same compound, the IC50 in test [3] was in the range of 101 to 500 nM.

For `CC(C)N1CCN(c2ccc(Nc3ncc(-c4ccc5c(c4)CNC5=O)n4ncnc34)cc2Cl)CC1` [Compound 180], the 50% effective concentration (EC50) in test [1] and in test [2] was over 1000 nM throughout. In test [3], this compound displayed an IC50 of 1 to 100 nM.

For the compound `O=C1NCc2cc(-c3cnc(NC4CCCC4)c4ncnn34)ccc21` [Compound 181], the EC50 in test [1] and in test [2] was over 1000 nM each time. The same compound displayed an IC50 in test [3] of 101 to 500 nM.
